# Assay results taken from article PMC8215115, “Systemically Achievable Doses of Beer Flavonoids Induce Estrogenicity in Human Endometrial Cells and Cause Synergistic Effects With Selected Pesticides” (Frontiers in Nutrition, 2021).
# Entries after “also recorded” stand apart in the source; their conditions may differ.
# Assays:
# [1] = system: ER-dependent induction of ALP expression in Ishikawa cells; assay: Alkaline phosphatase (ALP) assay for estrogenicity; type: cell-based, human; conditions: for lowest concentration inducing ALP expression (starting from): single compound; for plateau of enzymatic (ALP) activity: relative to 1 nM E2 = 100%
# Excerpt: In the present study, five exemplary pesticides (Figure 1B) were selected based on at least one published report of them acting as ER agonists, among them the publicly discussed herbicide glyphosate (GLP). Alkaline phosphatase (ALP) expression in Ishikawa cells was used as a natural reporter gene system for estrogenicity. On the contrary to some other in vitro test systems, this human endometrial cancer cell line expresses both, ER-α and ER-β, and thus facilitates the observation of interactions between chemicals acting as agonists to different receptor isoforms ([22]). Measuring the ALP-catalyzed conversion rate of 4-nitrophenyl phosphate to 4-nitrophenol as a marker for enzyme expression and thus ER activation, the test compounds were tested individually and in combination to generally address the concern of cumulative effects within this class of pesticides. To enable a direct comparison of effect strength, the same test system was used to determine the estrogenicity of a mixture of the most important hop polyphenols, resembling their respective concentration ratios in beer. Lastly, the two mixtures were combined in different ratios to assess potential combinatory effects toward ER activation.
# ALP assays were performed as recently described ([23]). Briefly, 10,000 Ishikawa cells per well were seeded in 96-well plates and allowed to attach for 48 h in assay medium (phenol red - free DMEM/F-12 supplemented with 1% (v/v) CD-FBS and 1% (v/v) P/S). Stock solutions were prepared by solving test compounds in DMSO, which were then diluted to the test concentrations in assay medium, resulting in a final DMSO concentration of 0.1–0.2% (v/v) (depending on the number of mixed compounds in incubation solutions, but consistently reflected by the same concentration in the respective solvent control). Cells were incubated with incubation solutions containing the test compounds or combinations thereof for another 48 h. Subsequently, cells were washed with PBS and lyzed by shock-freezing. ALP activity was determined by monitoring the conversion of 4-nitrophenyl phosphate to 4-nitrophenol photometrically at 405 nm with a PerkinElmer Victor 3V^TM plate reader. The slope of the obtained dose-response curves was taken as a measure for the ER-dependent induction of ALP expression.
# In brief, this method uses the mass-action law-derived median-effect equation (MDEE) to linearize dose-response curves of single compounds and combinations thereof. Subsequently, it facilitates the calculation of a parameter (the CI) which is indicative for the type and strength of a combinatory effect. […] To apply the model to ALP assay data, the latter were normalized to both, the solvent control and the positive control (1 nM E2, 100% effect). MDEE fitting and CI calculations were carried out using the CISNE tool ([26]) and MS Excel. Corresponding graphs and all further statistical calculations (normal distribution, one-way ANOVA, etc.) were carried out in Origin® 2020.
# Ishikawa cells [2] = assay: Sulforhodamine B (SRB) cell viability assay; type: cell-based, human; conditions: for cytotoxicity at highest applied concentration / Onset of cytotoxicity (lowest observed effect level), LOEL: Ishikawa cells; for cytotoxicity at highest applied concentration: 48 h; for Onset of cytotoxicity (lowest observed effect level), LOEL: 48 h incubation, at least three independent SRB assays
# Protocol: To ensure that effects observed in ALP assays were not caused by cytotoxicity, SRB cell viability assays were carried out in parallel. As with estrogenicity assays, 10,000 cells/well were seeded in 96-well plates, allowed to grow for 48 h and incubated with test solutions for another 48 h. Afterwards, cells were fixed by addition of 50% (v/v) trichloroacetic acid and 1 h incubation at 4°C. After 2 times washing with tab water and 2 times of washing with 1% (v/v) acetic acid, plates were dried overnight, incubated with SRB reagent for 45 min, washed twice with water, twice with 1% acetic acid and again dried overnight. Lastly, 10 mM TRIS base buffer was added to dissolve protein-bound SRB and the absorbance of each well was measured at 570 nm with a PerkinElmer Victor 3V^TM plate reader.
# To ensure non-cytotoxicity and thus to exclude false reporting anti-estrogenic effects, SRB cell viability assays were carried out in parallel (Ishikawa cells, 48 h incubation) to ALP assays. The single pesticides Dic, End, Fen and Met caused cytotoxic effects at high concentrations, with the lowest observed effect doses reported in Table 3. iX lead to a loss of cellular protein at the highest applied dose of 100 μM, a concentration which was however not applied in ALP assays.
# [3] = Pharmacokinetics of 8PN in humans receiving an extract from hops; type: in vivo; conditions: consumption of 0.5–1 L of average-hopped beer, assuming linear kinetics
# Excerpt: (§1) An often-used justification for discarding endocrine disrupting phytoestrogens in beer as a health concern is that the low bioavailability of hop polyphenols would limit systemically achieved doses to non-hazardous concentrations. At first sight, this notion seems to be supported by pharmacokinetic studies. […] This might partially result from the additional formation of 8PN from the naturally co-occurring iX, the most prevalent prenylflavonoid in beer ([24]), within the human gut ([18]) and liver ([31]). This reaction should be regarded as a metabolic activation due to the much higher estrogenicity of the reaction product. Assuming linear kinetics, the consumption of 0.5–1 L of average-hopped beer (Table 2) could result in systemic 8PN concentrations around 0.5 nM, a dose sufficient to cause significant estrogenicity in our in vitro test system (Figure 2).
# [4] = humans, extract from hops containing 0.25 mg 8PN; cited from earlier work
# [5] = system: MCF-7 breast cancer cells; parameters: method as in PMID 28711546; conditions: cited from earlier work
# [6] = Human intervention study, pharmacokinetics of XN; type: in vivo; conditions: plasma, 20 mg, estimated from CMax/AUC assuming standard physiological parameters, read-out: bioavailability (rough estimate)
# Excerpt: as §1
# [7] = system: ER-dependent induction of ALP expression in Ishikawa cells; parameters: method as in PMID 30283786; conditions: cited from earlier work
# [8] = parameters: method as in PMID 24038952; conditions: humans, 20 mg of XN; cited from earlier work
# Ishikawa cells [9] = conditions: cited from earlier work
# [10] = Ishikawa cells, 48 h, scaled to 1 nM E2 = 100%
compound,measurement,setting,value
"CC(C)=CCc1c(O)cc(O)c2c1O[C@H](c1ccc(O)cc1)CC2=O [8PN, 8-prenylnaringenin]",ED50 of ALP induction,[1]; [10],2.44 ± 1.60 nM
same,lowest concentration inducing ALP expression (starting from),"[1]; Ishikawa cells, 48 h",0.5 nM
same,plateau of enzymatic (ALP) activity,[1],about 75%
same,cytotoxicity at highest applied concentration,Ishikawa cells [2]; 500 nM,no cytotoxicity
same,estimated systemic concentration,[3],around 0.5 nM
same,AUC,[4],24.3 ± 8.9 ng·h/mL
same,CMax,[4],1.4 ± 0.3 µg/L
same,Cmax,[4],3.8 nM
"OC(c1ccc(Cl)cc1)(c1ccc(Cl)cc1)C(Cl)(Cl)Cl [Dic, dicofol]",lowest concentration inducing ALP expression (starting from),"[1]; Ishikawa cells, 48 h",10 nM
same,"Onset of cytotoxicity (lowest observed effect level), LOEL",Ishikawa cells [2],50 µM
"O=S1OCC2C(CO1)C1(Cl)C(Cl)=C(Cl)C2(Cl)C1(Cl)Cl (stereo not shown) [End, endosulfan]",lowest concentration inducing ALP expression (starting from),"[1]; Ishikawa cells, 48 h",5 nM
same,ED50 of ALP induction,[1]; calculated with the CISNE tool,12300 ± 2900 nM
same,"Onset of cytotoxicity (lowest observed effect level), LOEL",Ishikawa cells [2],50 µM
"OC(c1ccc(Cl)cc1)(c1cncnc1)c1ccccc1Cl (stereo not shown) [Fen, fenarimol]",lowest concentration inducing ALP expression (starting from),"[1]; Ishikawa cells, 48 h",2.5 nM
same,"Onset of cytotoxicity (lowest observed effect level), LOEL",Ishikawa cells [2],100 µM
"O=C(O)CNCP(=O)(O)O [Glp, glyphosate]",ER-mediated gene expression (ALP),[1]; concentrations up to 300 μM,neither ER-mediated gene expression nor cytotoxicity; also recorded: did not act estrogenic
same,cytotoxicity,Ishikawa cells [2]; concentrations up to 300 μM,neither ER-mediated gene expression nor cytotoxicity
same,cytotoxicity at highest applied concentration,Ishikawa cells [2]; up to 500 μM,no cytotoxicity
same,concentration causing estrogen-like growth stimulation,[5],≥ 59 µM
"C[C@]12CC[C@@H]3c4ccc(O)cc4C[C@@H](CCCCCCCCC[S+]([O-])CCCC(F)(F)C(F)(F)F)[C@H]3[C@@H]1CC[C@@H]2O (stereo partly shown) [ICI 182,780, fulvestrant, reference compound]",effect of co-incubation on estrogenicity of active compounds,[1]; co-incubation with active concentrations of the compounds,suppression of estrogenicity
"CNC(=O)Oc1cc(C)c(SC)c(C)c1 [Met, methiocarb]",lowest concentration inducing ALP expression (starting from),"[1]; Ishikawa cells, 48 h",10 nM
same,"Onset of cytotoxicity (lowest observed effect level), LOEL",Ishikawa cells [2],100 µM
"COc1cc(O)c(CC=C(C)C)c(O)c1C(=O)/C=C/c1ccc(O)cc1 [XN, xanthohumol]",bioavailability,[6],~2%
same,estrogenicity in this test system,[7],not to act estrogenic
same,area under the curve (AUC),[8],92 ± 68 ng·h/mL
same,peak plasma concentration (CMax),[8],33 ± 7 µg/L
same,cytotoxicity in this experimental setup,Ishikawa cells [9],non-cytotoxicity
"COc1cc(O)c(CC=C(C)C)c2c1C(=O)CC(c1ccc(O)cc1)O2 (stereo not shown) [iX, isoxanthohumol]",ED50 of ALP induction,[1]; [10],342 ± 125 nM
same,lowest concentration inducing ALP expression (starting from),"[1]; Ishikawa cells, 48 h",100 nM
same,plateau of enzymatic (ALP) activity,[1],about 75%
same,"Onset of cytotoxicity (lowest observed effect level), LOEL",Ishikawa cells [2],100 µM
